These compounds were tested against T1, PIP4K2C (Homo sapiens, UniProt Q8TBX8) (assay: HiBiT PIP4K2C degradation assay in MOLT-4 cells (endogenous PIP4K2C C-terminally tagged with HiBiT)). Conditions: 6 hours of incubation time, rather than 24 hours; MOLT-4, top concentration 10 micromolar; read-out: HiBIT-degradation MOLT4 PIP4k2C DC50 (6 hours, marked *).
T1 sequence (Q8TBX8 1-421): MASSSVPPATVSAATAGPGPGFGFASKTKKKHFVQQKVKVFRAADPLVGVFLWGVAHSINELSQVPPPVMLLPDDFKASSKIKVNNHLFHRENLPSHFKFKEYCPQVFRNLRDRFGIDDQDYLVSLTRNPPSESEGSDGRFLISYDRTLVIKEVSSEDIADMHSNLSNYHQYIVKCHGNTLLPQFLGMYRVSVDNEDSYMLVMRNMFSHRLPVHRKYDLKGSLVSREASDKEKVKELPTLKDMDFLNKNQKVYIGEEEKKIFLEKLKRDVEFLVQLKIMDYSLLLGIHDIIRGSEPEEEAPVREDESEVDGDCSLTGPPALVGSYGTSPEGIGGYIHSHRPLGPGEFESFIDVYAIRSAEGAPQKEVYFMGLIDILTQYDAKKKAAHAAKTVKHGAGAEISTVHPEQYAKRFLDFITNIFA
Format: cell-based
Design: untagged in primary human PBMCs and monocyte-derived dendritic cells
Outline: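 MOLT-4 cells with endogenous PIP4K2C C-terminally HiBiT-tagged by CRISPR were treated with a 10-point, 3-fold dilution series from 10 micromolar, in duplicate, for 24 h or 6 h at 37 C. Remaining tagged protein read by HiBiT lytic luminescence; DC50 from Hill-equation fit.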

SMILES | DC50 [µM]
Cn1nc(N2CCC(=O)NC2=O)c2ccc(C3CCN(CC4(O)CCN(C(=O)O[C@H]5CC[C@H](Nc6ncc(F)c(-c7cccc(-c8ccccc8)c7)n6)CC5)CC4)CC3)cc21 [Compound 635, trans-4-((4-([1,1′-biphenyl]-3-yl)-5-fluoropyrimidin-2-yl)amino)cyclohexyl 4-((4-(3-(2,4-dioxotetrahydropyrimidin-1 (2H)-yl)-1-methyl-1H-indazol-6-yl)piperidin-1-yl)methyl)-4-hydroxypiperidine-1-carboxylate] | < 0.5
Cn1nc(C2CCC(=O)NC2=O)c2ccc(C3CCN(CC4(O)CCN(C(=O)O[C@H]5CC[C@H](Nc6ncc(F)c(-c7cccc(-c8ccccc8)c7)n6)CC5)CC4)CC3)cc21 (stereo partly drawn) [Compound 646, trans-4-((4-([1,1′-biphenyl]-3-yl)-5-fluoropyrimidin-2-yl)amino)cyclohexyl 4-((4-(3-(2,6-dioxopiperidin-3-yl)-1-methyl-1H-indazol-6-yl)piperidin-1-yl)methyl)-4-hydroxypiperidine-1-carboxylate] | < 0.5
O=C1CCC(Nc2ccc(N3CCC(N4CCC(NC(=O)[C@H]5CC[C@H](Nc6ncc(F)c(-c7cccc(N8CCCCC8)c7)n6)CC5)CC4)CC3)c(F)c2)C(=O)N1 (stereo partly drawn) [Compound 531, trans-N-(1′-(4-((2,6-dioxopiperidin-3-yl)amino)-2-fluorophenyl)-[1,4′-bipiperidin]-4-yl)-4-((5-fluoro-4-(3-(piperidin-1-yl)phenyl)pyrimidin-2-yl)amino)cyclohexane-1-carboxamide] | < 0.5
O=C1CCC(Nc2ccc(N3CCC(N4CCC(C(=O)N[C@H]5CC[C@H](Nc6ncc(F)c(-c7cccc(N8CCOCC8=O)c7)n6)CC5)CC4)C(F)(F)C3)c(F)c2)C(=O)N1 (stereo partly drawn) [Compound 501, trans-1′-(4-((2,6-dioxopiperidin-3-yl)amino)-2-fluorophenyl)-3′,3′-difluoro-N-(4-((5-fluoro-4-(3-(3-oxomorpholino)phenyl)pyrimidin-2-yl)amino)cyclohexyl)-[1,4′-bipiperidine]-4-carboxamide] | < 0.5

Further lines, results first:

DC50 [µM] | SMILES
< 0.5 | O=C1CC[C@H](Nc2ccc(C3CCN(CC4CCN(C(=O)[C@H]5CC[C@H](Nc6ncc(F)c(-c7cccc(-c8ccc[nH]c8=O)c7)n6)CC5)CC4)CC3)c(F)c2)C(=O)N1 (single isomer, unassigned) [Compound 437]
< 0.5 | O=C1CC[C@H](Nc2ccc(N3CCN([C@H]4CC[C@H](C(=O)N[C@H]5CC[C@H](Nc6ncc(F)c(-c7cccc(N8CCCCC8=O)c7)n6)CC5)CC4)CC3)c(F)c2)C(=O)N1 (single isomer, unassigned) [Compound 458]
< 0.5 | O=C1CCC(Nc2ccc(C3CCN([C@H]4CC[C@H](NC(=O)[C@H]5CC[C@H](Nc6ncc(F)c(-c7ccnc(N8CCOCC8=O)c7)n6)CC5)CC4)CC3)c(F)c2)C(=O)N1 (stereo partly drawn) [Compound 480, trans-N-((trans)-4-(4-(4-((2,6-dioxopiperidin-3-yl)amino)-2-fluorophenyl)piperidin-1-yl)cyclohexyl)-4-((5-fluoro-4-(2-(3-oxomorpholino)pyridin-4-yl)pyrimidin-2-yl)amino)cyclohexane-1-carboxamide]
< 0.5 | O=C1CC[C@@H](Nc2ccc(C3CCN(CC4CCN(C(=O)[C@H]5CC[C@H](Nc6ncc(F)c(-c7cccc(N8CCCCC8=O)c7)n6)CC5)CC4)CC3)c(F)c2)C(=O)N1 (single isomer, unassigned) [Compound 448]
< 0.5 | O=C1CCC(Nc2ccc(C3CCN([C@H]4CC[C@H](C(=O)N[C@H]5CC[C@H](Nc6ncc(F)c(-c7cccc(-n8ccccc8=O)n7)n6)CC5)CC4)CC3)c(F)c2)C(=O)N1 (stereo partly drawn) [Compound 567, trans-(1r,4R)-4-(4-(4-((2,6-dioxopiperidin-3-yl)amino)-2-fluorophenyl)piperidin-1-yl)-N-((1r,4R)-4-((5-fluoro-4-(2-oxo-2H-[1,2′-bipyridin]-6′-yl)pyrimidin-2-yl)amino)cyclohexyl)cyclohexane-1-carboxamide]
< 0.5 | CN(C(=O)[C@H]1CC[C@H](N2CCC(c3ccc(NC4CCC(=O)NC4=O)cc3F)CC2)CC1)[C@H]1CC[C@H](Nc2ncc(F)c(-c3cccc(-n4ccccc4=O)c3)n2)CC1 (stereo partly drawn) [Compound 653, trans-4-(4-(4-((2,6-dioxopiperidin-3-yl)amino)-2-fluorophenyl)piperidin-1-yl)-N-((trans)-4-((5-fluoro-4-(3-(2-oxopyridin-1 (2H)-yl)phenyl)pyrimidin-2-yl)amino)cyclohexyl)-N-methylcyclohexane-1-carboxamide]
< 0.5 | O=C1CCC(Nc2ccc(N3CCN(CC4CCN(C(=O)[C@H]5CC[C@H](Nc6ncc(F)c(-c7cccc(N8CCCCC8)c7)n6)CC5)CC4)CC3)c(F)c2)C(=O)N1 (stereo partly drawn) [Compound 513, trans-3-((3-fluoro-4-(4-((1-(4-((5-fluoro-4-(3-(piperidin-1-yl)phenyl)pyrimidin-2-yl)amino)cyclohexane-1-carbonyl)piperidin-4-yl)methyl)piperazin-1-yl)phenyl)amino)piperidine-2,6-dione]
< 0.5 | O=C1CC[C@@H](Nc2ccc(C3CCN([C@H]4CC[C@H](C(=O)N[C@H]5CC[C@H](Nc6ncc(F)c(-c7cccc(-c8ccc[nH]c8=O)c7)n6)CC5)CC4)CC3)c(F)c2)C(=O)N1 [Compound 454, trans-4-(4-(4-(((R)-2,6-dioxopiperidin-3-yl)amino)-2-fluorophenyl)piperidin-1-yl)-N-(trans-4-((5-fluoro-4-(3-(2-oxo-1,2-dihydropyridin-3-yl)phenyl)pyrimidin-2-yl)amino)cyclohexyl)cyclohexane-1-carboxamide]

Same assay, conditions: 24 hours incubation, MOLT-4, top concentration 10 micromolar; read-out: HiBIT-degradation MOLT4 PIP4k2C 24 hours DC50

DC50 [µM] | SMILES
< 0.5 | Cc1ccc(=O)n(-c2cccc(-c3nc(N[C@H]4CCC[C@@H](C(=O)N5CCC(CCN6CCC(c7ccc8c(c7)oc(=O)n8C7CCC(=O)NC7=O)CC6)CC5)C4)ncc3F)c2)c1 (stereo partly drawn) [Compound 354, 3-(6-(1-(2-(1-((1R,3S)-3-((5-fluoro-4-(3-(5-methyl-2-oxopyridin-1(2H)-yl)phenyl)pyrimidin-2-yl)amino)cyclohexane-1-carbonyl)piperidin-4-yl)ethyl)piperidin-4-yl)-2-oxobenzo[d]oxazol-3 (2H)-yl)piperidine-2,6-dione]
< 0.5 | Cn1c(=O)n(C2CCC(=O)NC2=O)c2ccc(C3CCN(CCC4CCN(C(=O)[C@H]5CCC[C@@H](Nc6ncc(F)c(-c7cccc(-n8ccccc8=O)c7)n6)C5)CC4)CC3)cc21 (relative stereo) [Compound 291, cis-3-(5-(1-(2-(1-(3-((5-fluoro-4-(3-(2-oxopyridin-1(2H)-yl)phenyl)pyrimidin-2-yl)amino)cyclohexane-1-carbonyl)piperidin-4-yl)ethyl)piperidin-4-yl)-3-methyl-2-oxo-2,3-dihydro-1H-benzo[d]imidazol-1-yl)piperidine-2,6-dione]
< 0.5 | O=C1CCC(n2c(=O)oc3cc(C4CCN(CC5CCN(CC(=O)N[C@H]6CC[C@H](Nc7ncc(F)c(-c8cccc(N9CCCOC9=O)c8)n7)CC6)CC5)CC4)ccc32)C(=O)N1 (stereo partly drawn) [Compound 362, trans-2-(4-((4-(3-(2,6-dioxopiperidin-3-yl)-2-oxo-2,3-dihydrobenzo[d]oxazol-6-yl)piperidin-1-yl)methyl)piperidin-1-yl)-N-(4-((5-fluoro-4-(3-(2-oxo-1,3-oxazinan-3-yl)phenyl)pyrimidin-2-yl)amino)cyclohexyl)acetamide]
> 5 | O=C1CCC(n2c(=O)oc3cc(C4CCN(CC5CCN(CC(=O)N6CCC(Nc7ncc(Cl)c(-c8cccc(-n9ccccc9=O)c8)n7)CC6)CC5)CC4)ccc32)C(=O)N1 (stereo not drawn) [Compound 373, 3-(6-(1-((1-(2-(4-((5-chloro-4-(3-(2-oxopyridin-1(2H)-yl)phenyl)pyrimidin-2-yl)amino)piperidin-1-yl)-2-oxoethyl)piperidin-4-yl)methyl)piperidin-4-yl)-2-oxobenzo[d]oxazol-3 (2H)-yl)piperidine-2,6-dione]
< 0.5 | Cn1c(=O)n(C2CCC(=O)NC2=O)c2ccc(C3CCN(C4CCCN(CC(=O)N5CCC(Nc6ncc(Cl)c(-c7cccc(-c8ccc(F)cc8)c7)n6)CC5)C4)CC3)cc21 (stereo not drawn) [Compound 275, 3-(5-(1′-(2-(4-((5-chloro-4-(4′-fluoro-[1,1′-biphenyl]-3-yl)pyrimidin-2-yl)amino)piperidin-1-yl)-2-oxoethyl)-[1,3′-bipiperidin]-4-yl)-3-methyl-2-oxo-2,3-dihydro-1H-benzo[d]imidazol-1-yl)piperidine-2,6-dione]
< 0.5 | O=C1CCC(n2c(=O)oc3cc(C4CCN(CCC5CCN(C(=O)[C@@H]6CCC[C@H](Nc7ncc(F)c(-c8cccc(N9CCCCC9=O)c8)n7)C6)CC5)CC4)ccc32)C(=O)N1 (stereo partly drawn) [Compound 356, 3-(6-(1-(2-(1-((1R,3S)-3-((5-fluoro-4-(3-(2-oxopiperidin-1-yl)phenyl)pyrimidin-2-yl)amino)cyclohexane-1-carbonyl)piperidin-4-yl)ethyl)piperidin-4-yl)-2-oxobenzo[d]oxazol-3 (2H)-yl)piperidine-2,6-dione]

Source: patent publication US20260355196A1, “INHIBITORS AND DEGRADERS OF PIP4K PROTEIN” (Larkspur Biosciences, Inc., priority 2023, published 2026)
